Measured values from patent US20020028474A1, “Composition for immunohistochemical staining” (DAIICHI PURE CHEMICAL CO., LTD., priority 1996, published 2002).
Counter-ions that a name gives are not always drawn.

Tests used:
Assay type in all cases: physicochemical
[1] = Fluorescence observed by infrared ray microscope on cotton gauze thread, with or without sodium distearoylphosphatidate/octyl glucoside solution (Example 1); parameters: key: +++: Definitely bright; ++: Bright.; +: Observable; ±: Slightly observable; details: for Fluorescence intensity, No addition group: no DSPA/OG solution; for Fluorescence intensity, Addition group: sodium distearoylphosphatidate + octyl glucoside solution added
Description: Octyl glucoside (Dojindo Laboratories, 880 mg) was carefully added to phosphate buffered saline (10 ml, pH 7.4) and dissolved with stirring on a water bath at 40° C. Sodium distearoylphosphatidate (148.8 mg) was added to the resulting solution and dissolved with stirring over a water bath at 60° C., and then the solution was added with phosphate buffered saline up to a final volume of 20 ml. The solution was returned to room temperature and stored as frozen aliquots of 1 ml volume before use. The final concentrations of sodium distearoylphosphatidate and octyl glucoside in the solution were 10 mM and 150 mM, respectively.
The above diagnosis marker (54 μg) in the lyophilized state was added with 10% (v/v) dimethyl sulfoxide (DMSO)/phosphate buffered saline (20 μl, pH 7.4) and dissolved. The above solution of sodium distearoylphosphatidate and octyl glucoside (5 μl) was added to 5 μl of the resulting solution, which was warmed beforehand, and mixed by repeating careful suction and ejection using a micropipette to obtain a composition of the present invention in the form of an aqueous solution. By using an indocyanine green (ICG) solution, ICC-sulfo-OSu solution, and water (control) instead of the solution of the diagnosis marker, aqueous compositions were prepared in the same manner as described above.
BHSM-IR (Olympus Optical) was used as an infrared ray microscope that allows observation in visible light to near infrared light region. The microscope was equipped with an excitation light transmitting filter that transmits lights of 710-790 nm (Asahi Bunko) under the sample, and with an excitation light cutting filter that transmits lights of 810-920 nm (Asahi Bunko) over the sample. KP-MI from Hitachi Electronic Engineering was used as a CCD, and fluorescence caught by the CCD was taken into an image collecting apparatus (EVIP-230, Olympus Optical), and recorded in an image recording apparatus (S321S, Olympus Optical) via an amplification system (Olympus Optical).
5 μl of each of the samples was dropped onto a cotton gauze thread (1 cm) placed on an object glass, and images were observed under irradiation by ordinary light and infrared light using the above optical system. […] The recorded images were converted into final images through an image processing comprising the steps of integration of an original image, integration of a background image, formation of a subtraction image, formation of a filtering image, and contrast enhancement by using the above-mentioned apparatus. […] In the table, all of the concentrations indicate those calculated based on ICG concentration. […] In the figure, (a) represents the result obtained under irradiation of ordinary light, and (b) represents the result obtained under irradiation of infrared ray.

[2] = Fluorescence intensity enhancing effect versus octyl glucoside concentration (Example 3); details: for Fluorescence wavelength / Fluorescence intensity: excitation 768 nm; for Fluorescence intensity: labeled anti-mucin antibody 83.3 nM, 50° C.; for Fluorescence intensity (standard): 1 ppm, λex=251 nm, λem=450 nm
Description: The final antibody concentration in the diagnostic markers was 83.3 nM, and the IOG-sulfo-OSu concentration was 1.33 μM. Fluorescence spectra of the samples were measured in the same manner as in Example 2. The slit width was 2 nm for each of excitation light and fluorescence.

[3] = Fluorescence spectrum of compositions of ICG-sulfo-OSu-labeled mouse anti-mucin antibody with fluorescence intensity enhancing agents (Example 2); details: 1 ppm, λex=255 nm, λem=451 nm
Description: The above diagnostic marker in the form of lyophilized product obtained from the mouse anti-mucin antibody (100 μg) was added with 4.0 ml of phosphate buffered saline and dissolved. 1.5 ml of the resulting solution was added with 1.5 ml of a solution of the fluorescence intensity enhancing agent of the present invention, and then the mixture was warmed over a water bath at 50° C. to prepare a final sample. As a control, a solution was prepared in the same manner by adding 1.5 ml of phosphate buffered saline. The final antibody concentration in the diagnostic marker was 83.3 nM, and the ICG-sulfo-OSu concentration was 1.33 μM. Fluorescence spectrum of each sample was measured by using a Hitachi spectrophotometer 650-40. The slit width was 5 nm for each of excitation light and fluorescence.

[4] = before the spectrum measurement

In the case of CC1(C)C(/C=C/C=C/C=C/C=C2\N(CCCCS(=O)(=O)O)c3ccc4ccccc4c3C2(C)C)=[N+](CCCCS(=O)(=O)[O-])c2ccc3ccccc3c21 [ICC, indocyanine green], the “Fluorescence intensity, No addition group” value ([1]; 1 mg/ml in terms of ICG, fluorescence at 800 nm or more) is reported as “++” and the “Fluorescence intensity, Addition group” value ([1]; 1 mg/ml in terms of ICG) is reported as “++”.
In the case of CC1(C)C(/C=C/C=C/C=C/C=C2\N(CCCCS(=O)(=O)[O-])c3ccc4ccccc4c3C2(C)C)=[N+](CCCCCC(=O)ON2C(=O)CC(S(=O)(=O)[O-])C2=O)c2ccc3ccccc3c21.[Na+] (stereo not drawn) [ICG-sulfo-OSu, indocyanine green-N-hydroxysulfosuccinimide ester], the “Fluorescence intensity, No addition group” value ([1]; 10 μg/ml in terms of ICG) is reported as “+”, the “Fluorescence intensity, Addition group” value ([1]; 10 μg/ml in terms of ICG) is reported as “+” and the “Fluorescence intensity, No addition group” value ([1]; 100 μg/ml in terms of ICG) is reported as “±”. For the same molecule, the “Fluorescence intensity, Addition group” value ([1]; 100 μg/ml in terms of ICG) was “++”.
With CCCCCCCCO[C@@H]1O[C@H](CO)[C@@H](O)[C@H](O)[C@H]1O [OG, octyl glucoside] the “shift of fluorescence wavelength to a longer wavelength region versus octyl glucoside concentration” value ([2]; ICG-sulfo-OSu labeled anti-mucin antibody) was “sharp increases were observed at concentrations near the critical micelle concentration”, the “dependence of fluorescence intensity on octyl glucoside concentration” value ([2]; ICG-sulfo-OSu labeled anti-mucin antibody, critical micelle concentration 25 mM) was “Sharp increases of fluorescence intensity were observed at concentrations near the critical micelle concentration” and the Fluorescence wavelength ([2]; OG 1.0 mM) was 806 nm. The Fluorescence intensity ([2]; OG 1.0 mM) was 0.150, the Fluorescence wavelength ([2]; OG 1.50 mM) was 821 nm and the Fluorescence intensity ([2]; OG 1.50 mM) was 0.588. For the same molecule, the Fluorescence wavelength ([2]; OG 5.0 mM) was 804 nm, the Fluorescence intensity ([2]; OG 5.0 mM) was 0.150 and the Fluorescence wavelength ([2]; OG 10.0 mM) was 809 nm. It also gave a Fluorescence intensity ([2]; OG 10.0 mM) of 0.189, a Fluorescence wavelength ([2]; OG 20.0 mM) of 817 nm and a Fluorescence intensity ([2]; OG 20.0 mM) of 0.436. For the same molecule, the Fluorescence wavelength ([2]; OG 37.5 mM) was 817 nm, the Fluorescence intensity ([2]; OG 37.5 mM) was 0.520 and the Fluorescence wavelength ([2]; OG 50.0 mM) was 820 nm. The Fluorescence intensity ([2]; OG 50.0 mM) was 0.515, the Fluorescence wavelength ([2]; OG 75.0 mM) was 816 nm and the Fluorescence intensity ([2]; OG 75.0 mM) was 0.525. The Fluorescence wavelength ([2]; OG 100 mM) was 816 nm and the Fluorescence intensity ([2]; OG 100 mM) was 0.600.
For C=C[C@H]1C[N@@]2CC[C@H]1C[C@H]2[C@H](O)c1ccnc2ccc(OC)cc12 [quinine sulfate, reference compound], the “Fluorescence intensity (standard)” value ([3]; after the spectrum measurement) was 69.5, the “Fluorescence intensity (standard)” value [3, 4] was 68.0 and the “Fluorescence intensity (standard)” value ([2]; after the spectrum measurement) was 96.0. For the same molecule, the “Fluorescence intensity (standard)” value [2, 4] was 100.0.
